The assay relates to Tumorart PS 2684. On the set-up: species or system Mäusen. Conditions: in vivo.

“And” between values parts separate entries of the source, which are not always exact repeats. Equal values may be shown once.

In the case of `CN(CC1CO1)P1(=O)OCCCN1CC(Cl)CO` (centres unmarked) [Beispiel 2, 2H-1,3,2-Oxazaphosphorin, 2-(glycidyl-methyl)amino-2-oxid-3-(3-hydroxy-2-chloro)-propyl- . tetrahvdro -], the T/C-Wert is 158 and 134.
With `O=P1(N(CC2CO2)CC2CO2)OCCCN1CC1CO1` (centres unmarked) [Beispiel 1, 2H-1,3,2-Oxazaphosphorin, 2-(bis-glycidyl)aminotetrahydro-2-oxid-3-glycidyl-] the figure was 158 and 132.

These data come from patent publication EP0072987A1 (priority 1981, dated 1983).
